Assay [1] relates to T cells. As to the kind of experiment: Detection of cell death: 7-AAD staining of anti-CD3 stimulated lymphocytes, FACScan. Particulars: anti-CD3, 3 days; 1501 µM kynurenine, 349µM 3-hydroxykynurenine, 510µM 3-hydroxyanthranilic acid, mixture 64 µM of each compound. It is filed as cell-based, human. On the procedure:
Lymphocytes were stimulated in culture with anti-CD3 monoclonal antibody (s. above) in the presence or absence (control) of kynurenine (1501µM), 3-hydroxyanthranilic acid (510µM), 3-hydroxykynurenine (348µM), or metabolite mixture (64µM kynurenine + 64µM 3-hydroxykynurenine + 64µM anthranilic acid + 64µM 3-hydroxyanthranilic acid + […] quinolinic acid). After 3 days the cells were washed and resuspended in PBS (10^6/ml). Thereafter, the cells (100µ1 suspension) were labeled with anti-CD3-FITC antibody (3 µl), stained with 7-AAD (5µl) for 15 min, and the percentage of 7-AAD-positive (dead) T cells was determined in a FACScan. In an other experiment T cells, B cells, NK-cells, or DCs were separated from PBMCs by magnetic beads or generated as described, and cultured (5x10^5 cells/ml) with a mixture of kynurenine metabolites (kynurenine + 3-hydroxykynurenine + anthranilic acid + 3-hydroxyanthranilic acid + quinolinic acid)(8, 16, or 32µM respectively for each compound). In one setting T cells were activated with anti-CD3 antibody. Cell death was measured daily for 5 days by 7-AAD staining and expressed in percentage of dead cells.

The test system of assay [2] is CD3-stimulated T cells. Kind of assay: CD3 stimulation of T cells: metabolite titration curves, 3[H]-thymidin incorporation. It is filed as cell-based, human. Particulars: anti-CD3 antibody, 3 days. An excerpt: • (a) Allogeneic T-cell response. DCs were infected with recombinant IDO-adeno-GFP (DC-IDO-GFP), IDO-adeno (DC-IDO) or with control adenoviruses (DC-adeno) at a MOI (multiplicity of infection) up to 500 for 2 days. Lymphocytes (PBMCs) were separated from peripheral blood of healthy donors by density gradient centrifugation and typed for HLA antigens. Only HLA-DR-different responder lymphocytes were used for DC-induced stimulation. Native DCs only, lymphocytes only, native DCs + allogeneic lymphocytes, DC-IDO-GFP + allogeneic lymphoytes, DC-IDO + allogeneic lymphoytes, DC-adeno + allogeneic lymphocytes (each time 10^5 DC + 10^5 lymphocytes in 0.2ml medium) were cultured in RPMI 1640 medium (Gibco BRL Life Technologies GmbH, Eggenstein, Germany) with 10% fetal calf serum (FCS) (final tryptophan concentration 5.25 mg/l = 25.69 uM) and Penicillin G/Streptomycin. […] In order to verify whether IDO expression or adenovirus infection harm the DCs, 10^5 cells were infected with IDO-adeno-GFP, IDO-adenovirus, or adenovirus only at a stepwise decreasing MOI (500, 250, 125, ........ 3.9) and cell viability was measured in FACS following double staining with 7-AAD and anti-CD83 antibody-PE. The percentage of dead cells never exceeded 30% for any MOI following IDO-adeno-GFP- or IDO-adeno-infection and 40% following adenovirus(control)-infection. Moreover, these values were not higher than those of native DCs cultured for the same period of time. The experiment was repeated using ethidium bromide or trypan blue staining with virtually the same result. […] Peripheral blood lymphocytes were cultured (10^5 cells/well) in RPMI 1640 (10% FCS) with anti CD3 monoclonal antibody (Ortho Diagnostic Systems Inc., Raritan, NJ) (final dilution 1:200). […] Kynurenine, 3-hydroxykynurenine, anthranilic acid, 3-hydroxyanthranilic acid, and quinolinic acid (Sigma-Aldrich Chemie GmbH, Taufkirchen, Germany)(for all substances purity>98%) were dissolved in RPMI 1640 and added to cell cultures at various concentrations. In an other experiment, to determine whether the metabolites have an additive effect, equal concentrations of the compounds were mixed and added to the cultures. […] Positive controls consisted of CD3-stimulated cells without metabolites and negative controls of unstimulated cells. • (d) Restimulation of suppressed T cells. Lymphocytes (10^5 cells/well) were cultured in RPMI 1640 (10% FCS) with anti-CD3 monoclonal antibody (final dilution 1:200) and kynurenine (dilution series). […] Controls consisted of cells prestimulated with anti-CD3 but not pretreated with kynurenine. In an other restimulation experiment lymphocytes were stimulated with allogeneic DCs as described, in the presence (47-1500µM) or absence of kynurenine. Control cultures contained DCs or lymphocytes only. After 5 days the cells were extensively washed, and restimulated with an identical number of DCs derived from the same donor or from third party donors. […] In order to define the concentration of tryptophan which reduces T- lymphocyte proliferation in our test system, 10^5 lymphocytes were incubated in tryptophan-free RPMI 1640 medium (Gibco BRL Life Technologies) with or without 10% FCS, stimulated with anti-CD3 monoclonal antibody, and various amounts (0-38µM) of tryptophan were added. Unimpaired proliferation was observed down to 0.30µM (medium with FCS) and 1 .20µM (without FCS). Complete inhibition was not obtained at any concentration (positive control 100% proliferation; maximal suppression in medium with FCS: approx. 66% and without FCS: approx. 33%). All cell cultures were done in triplicate.
All tests were carried out in triplicate and results are given as mean +standard deviation. […] Thereafter, the concentration of substance giving 50% proliferation was calculated by regression.

As for `Nc1c(O)cccc1C(=O)CC(N)C(=O)O` (stereo not drawn) [3-hydroxykynurenine], in assay [1], the “dead (7-AAD-positive) T cells (in words)” value is recorded as “virtually all cells died”. The IC50 in assay [2] (Homo sapiens, T-cell, 72 h, single substance, read-out: I50 of proliferation of CD3-stimulated T cells) was 187 µM. Also, the “suppression of T cell response (in words)” value in assay [2] was “strongly suppress T cells”.

For the origin of these results see EP1369114A1, “Use of tryptophan metabolites as pharmaceutical agents” (Terness, Peter, Priv. Doz. Dr., priority 2002, dated 2003).
